Laboratory results as given in US6784165B1, “Treatment of heart rhythm disturbances with N6-substituted-5′-(N-substituted) carboxamidoadenosines” (Aderis Pharmaceuticals, Inc., priority 1999, dated 2004).

Experiments:
adenosine A1 receptor [1] = biological target: T1, adenosine A1 receptor (Rattus norvegicus, UniProt P25099); test: Rat isolated Langendorff heart paced at 360 bpm: AV conduction (S-V interval) and coronary blood flow; design: Rat isolated hearts were prepared according to the method of Langendorff; from tissue; host or cells: rat isolated perfused heart (Langendorff); settings: rat isolated heart paced at 360 beats per minute
T1 sequence (P25099 1-326): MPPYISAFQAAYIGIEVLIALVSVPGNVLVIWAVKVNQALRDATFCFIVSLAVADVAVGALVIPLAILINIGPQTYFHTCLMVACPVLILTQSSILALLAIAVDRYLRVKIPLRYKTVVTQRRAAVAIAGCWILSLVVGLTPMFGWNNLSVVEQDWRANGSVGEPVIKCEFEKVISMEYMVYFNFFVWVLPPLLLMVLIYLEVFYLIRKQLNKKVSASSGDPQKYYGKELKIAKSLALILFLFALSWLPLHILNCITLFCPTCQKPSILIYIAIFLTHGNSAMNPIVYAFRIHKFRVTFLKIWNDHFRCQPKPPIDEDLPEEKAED
Method: (§1) Rat isolated hearts were prepared according to the method of Langendorff in which the coronary vasculature was perfused in a retrograde fashion at constant pressure via the aorta. Coronary blood flow was determined by measuring the volume of fluid leaving the heart. Heart rate was maintained at 360 beats per minute by electrical pacing of the right atrium. Atrioventricular (AV) conduction was determined as the time from the atrial stimulus to the beginning of ventricular depolarization (S-V interval).

adenosine A1 receptor [2] = test: as above; settings: at 6.8 nM and 8.3 nM, rat isolated heart
Method: as §1

[3] = test system: guinea pig isolated heart; test: Guinea pig isolated heart paced at 300-360 bpm: AV conduction interval versus coronary perfusate flow
Method: Guinea pig isolated hearts were prepared according to the methods described in Example 5. In the first portion of the experiment designed to determine the effect of heart rate on the negative dromotropic activity of Compound A, hearts were allowed to beat spontaneously or electrically paced either at 200 beats per minute (approximately 20% above the spontaneous rate) or at 300-360 beats per minute (approximately 80% above the spontaneous rate). Atrioventricular (AV) conduction interval (AV interval) was determined as the time from the atrial stimulus to the beginning of ventricular depolarization. The AV interval measurements were performed at each pacing rate with increased concentrations of Compound A as described in Example 5. Upon electrical pacing at 200 beats per minute, Compound A at a mean concentration of 3.9 nM produced a mean maximal 58% increase in AV interval, and heart block at a mean minimal concentration of 5.1 nM. […] The results are summarized in the table below, with data from spontaneously beating hearts included for comparative purposes:
In order to determine the differential potencies of Compound A for negative […] activity versus coronary vasodilation in paced hearts, a different set of experiments was conducted in which individual hearts were used to collect measurements for each action. Experimental conditions as described in Example 6 were used, with guinea pig isolated hearts being paced at 300-360 beats per minute. AV conduction interval was determined as described in Example 6. Coronary perfusate flow data was determined by measuring the volume of fluid leaving the heart. AV conduction interval data and coronary perfusate flow data were collected in the presence of increasing concentrations of Compound A. The results are shown in FIG. 3, with dose-related increases for both AV conduction interval and coronary perfusate flow. The differential for these effects is readily apparent. The mean concentration of Compound A that produced a maximal increase in AV conduction time was 0.76 nM.

adenosine A1 receptor [4] = biological target: T1, adenosine A1 receptor; test: Peak bradycardia after bolus intravenous injection in conscious rats; assay type: in vivo; design: from tissue; host or cells: whole animal (conscious Sprague-Dawley rats); settings: rat, bolus intravenous injections, read-out: ED50
From the text: (§2) Concentration dose-effect curve data were fitted to a sigmoid curve using Graphpad PRIZM™ software to obtain the concentration or dose of test compound that produces 50% of the maximal obtainable response, in vitro EC50 or in vivo ED50 values, for activation of the adenosine A1 receptor. Responses measured to each dose were the plateau negative inotropic response to cumulative additions of test compound in the isolated left atria and the peak bradycardia in response to bolus intravenous injections of test compound in conscious rats. Oral bioavailability was estimated from pharmacodynamic responses using the expression: (Response AUCoral/Response AUCiv)(Doseiv/Doseoral), where Response AUC is the area under the curve for test compound-induced bradycardia over time.
(§3) Male Sprague-Dawley rats were anesthetized with sodium pentobarbital 50 mg/kg i.p., and indwelling catheters were surgically implanted in the carotid artery and jugular vein two days prior to each experiment. During all subsequent experiments, rats were conscious and unrestrained. The carotid artery cannula was attached to a pressure transducer and blood pressure was recorded continuously throughout each experiment using a Grass polygraph. Heart rate was derived from the blood pressure signal using a Grass tachygraph. The measured parameters were allowed from 30 to 90 minutes to stabilize before the administration of test compound.
(§4) Test compounds were administered either by oral gavage using a curved, bulbed oral dosing cannula, or by intravenous administration via the jugular vein indwelling catheter. Rats dosed orally were fasted overnight before dosing, with water available ad libitum. Because the heart rate responses following intravenous administration of test compound rapidly returned to baseline, more than one dose of test compound could be administered to each rat. However, the responses to oral administration of test compounds were of a prolonged duration and therefore only a single dose could be administered to each rat.

[5] = test system: guinea pig isolated spontaneously beating heart; test: Guinea pig isolated spontaneously beating heart (Langendorff): heart rate and AV interval
Method: Guinea pig isolated hearts were prepared according to the method of Langendorff in which the coronary vasculature was perfused in a retrograde fashion at constant pressure via the aorta. Compound A was administered to the spontaneously beating hearts by infusion into the perfusion line supplying buffer to the coronary vasculature. The concentration of Compound A was adjusted by changes in the infusion rate and/or changes in the concentration of infusion solutions. The concentration of Compound A present in the perfusate was calculated by dividing the rate of Compound A infused by the coronary flow rate. Spontaneously beating heart rate and AV interval were recorded.

[6] = Oral bioavailability estimated from bradycardia AUC oral vs intravenous in conscious rats; assay type: in vivo, rat; settings: male, Sprague-Dawley, rat, in vivo
From the text: as §2, §3, §4
A comparison of the area under the bradycardia vs. time curve (AUC) following intravenous administration with the AUC following oral administration was used as a measure of oral bioavailability.

[7] = paced at 300-360 beats per minute
[8] = heart rate spontaneous (appro. 170 bpm)
[9] = spontaneously beating guinea pig heart

With `CCNC(=O)[C@H]1O[C@@H](n2cnc3c(NC4CCCC4)ncnc32)[C@H](O)[C@@H]1O` [Compound A, ethyl N^6-cyclopentyladenosine-5′-uronamide] the “mean concentration at maximal increase in S-V interval” value (adenosine A1 receptor [1]) was 6.8 nM, the “mean concentration for AV conduction blockade” value (adenosine A1 receptor [1]) was 8.3 nM and the “effect on coronary blood flow” value (adenosine A1 receptor [2]) was “no effect”. The EC50 ([3]; Cavia porcellus, paced at 300-360 beats per minute, read-out: EC50 for increase in coronary perfusate flow) was 32 nM, the “mean coronary perfusate flow rate reached” value ([3]; increase from a mean flow rate of 8.5 mL/min, paced at 300-360 bpm) was 14.2 mL/min and the “mean concentration producing heart block” value [3, 7] was 1.09 nM. The “mean concentration that produced a maximal increase in AV conduction time” value [3, 7] was 0.76 nM, the “potency at slowing AV conduction versus increasing coronary perfusate flow” value [3, 7] was “greater than 40 fold” and the “mean maximal increase in AV interval” value ([3]; paced at 300-360 beats per minute, at 0.76 nM) was 23%. The ED50 (adenosine A1 receptor [4]) was 0.0083 µmol/kg, the EC50 ([5]; Cavia porcellus, spontaneously beating guinea pig heart, read-out: EC50 for decrease in heart rate) was 3.2 nM and the “Mean Concentration of Compound A Required to Produce Maximal AV Interval” value [5, 8] was 11.7 nM. The “Mean Minimal Concentration of Compound A Required to Produce Heart Block” value [5, 8] was 13 nM, the “maximal decrease in heart rate” value [5, 9] was 58% and the “maximal increase in AV interval over basal values” [5, 9] was 34%. For the same molecule, the bioavailability [6] was 53%.
